The nature of this data set: HILIC, Merck SeQuant ZIC-pHILIC, 100 × 2.1 mm, 5 µm, 25 °C; gradient (min/%B) 0/3 1/3 12/30 14.5/90 17/90 18.5/3 24/3. Particulars: stereoisomer not certain.

Structures can show the parent of a compound that is named as a salt.

Consider `COc1ccc2[nH]cc(CC(N)C(=O)O)c2c1` (racemic) [5-Methoxy-DL-tryptophan], for which the LC retention time turned out to be 9.74 min.
For `NCCC(N)C(=O)O` (racemic) [DL-2-4-Diaminobutyric acid dihydrochloride], the LC retention time was 15.9 min.
The value for `NC(CCCC(N)C(=O)O)C(=O)O` (racemic) [DL-2-6-Diaminopimelic acid] was 14.8 min; that for `NC(CC(=O)O)C(=O)O` (racemic) [DL-Aspartic acid] was 13.6 min; that for `NC(CCS)C(=O)O` (racemic) [DL-Homocysteine] was 11.1 min.
`OCC1OC(OC2C(CO)OC(O)C(O)C2O)C(O)C(O)C1O` (single isomer, unassigned; peak a) [Lactose Peak A]: the LC retention time is 13.5 min.
The value for `Nc1ncnc2c1ncn2C1CC(O)C(CO)O1` (centres undefined) [2'-Deoxyadenosine] was 7.15 min.
Then `O=C(O)c1cc(=O)c2cccc(O)c2[nH]1` [4 8-Dihydroxyquinoline-2-carboxylic acid], with 9.54 min; and `CN(C)c1ccc(C=CC=O)cc1` [4-(dimethyl amino) cinnamaldehyde], with 1.17 min; and `COc1ccc2[nH]cc(CCN)c2c1` [5-methoxytryptamine], with 9.56 min.
Turning to `CC(C)=CCNc1ncnc2nc[nH]c12` [6-(Y-Y-Dimethylallylamino)purine], the LC retention time was determined as 2.88 min.
The value for `c1cnc2[nH]ccc2c1` [7-Azaindole] was 1.74 min.
Then `CC(N)=O` [Acetamide], with 2.38 min; and `Nc1ncnc2nc[nH]c12` [Adenine], with 8.22 min.
The value for `Nc1ncnc2c1ncn2C1OC(CO)C(O)C1O` (centres undefined) [Adenosine] was 7.78 min; that for `CC(N)C(=O)O` (centres undefined) [Alanine] was 12.1 min.
In the case of `CC(N)(CO)CO` [Amino-2-methylpropane-1 3-diol 2-], the LC retention time came out at 12.7 min.
`NCc1ccccc1` [Benzylamine] yielded an LC retention time of 10.2 min.
The value for `CC(=O)OCC1OC(OC(C)=O)C(OC(C)=O)C(OC(C)=O)C1OC(C)=O` (stereo not drawn) [Beta-Penta acetyl glucose] was 1.06 min; that for `O=C(O)CC1OCC=C2CN3CCC45C6=CC(=O)C(=O)C([N+](=O)[O-])=C6NC4C1C2CC35` (centres undefined) [Cacotheline] was 11.6 min.
Then `Oc1cc(O)c2c(c1)OC(c1ccc(O)c(O)c1)C(O)C2` (centres undefined) [Catechin], with 8.63 min; and `COc1cc2c(c(OC)c1OC)-c1ccc(OC)c(=O)cc1C(NC(C)=O)CC2` (centres undefined) [Colchicine], with 1.36 min.
Then `CN1CC(=O)NC1=N` [Creatinine], with 9.87 min; and `NC(CS)C(=O)O` (centres undefined) [Cysteine], with 11.8 min; and `Nc1ccn(C2OC(CO)C(O)C2O)c(=O)n1` (centres undefined) [Cytidine], with 10.5 min.
Molecule `Nc1ccnc(=O)[nH]1` [Cytosine] returned an LC retention time of 10.4 min.
For `O=C(CO)C(OC1OC(CO)C(O)C(O)C1O)C(O)C(O)CO` (stereo not drawn) [D(+)turanose], the LC retention time was 12.6 min.
The value for `CC(C)C[C@@H](N)C(=O)O` [D-Leucine] was 9.5 min; that for `N[C@H](Cc1c[nH]c2ccccc12)C(=O)O` [D-Tryptophan] was 10.1 min; that for `Nc1ccccc1C(=O)CC(N)C(=O)O` [D-kynurenine] was 9.76 min.
The value for `CC(C)[C@@H](N)C(=O)O` [D-valine] was 10.5 min; that for `Nc1ccn(C2CC(O)C(CO)O2)c(=O)n1` (centres undefined) [Deoxycytidine] was 10 min; that for `Nc1nc2c(ncn2C2CC(O)C(CO)O2)c(=O)[nH]1` (centres undefined) [Deoxyguanosine] was 9.48 min.
In turn, `COc1cc(-c2ccc(N)c(OC)c2)ccc1N` [Dianisidine o-] showed an LC retention time of 1.46 min.
Molecule `COc1ccc(Cc2cnc(N)nc2N)cc1OC` [Diaveridine] gave an LC retention time of 8.91 min.
Then `c1ccc(CNCc2ccccc2)cc1` [Dibenzylamine], with 7.37 min; and `C(=NC1CCCCC1)=NC1CCCCC1` [Dicyclohexylcarbodiimide-n n'], with 1.09 min.
Then `OCCNCCO` [Diethanolamine], with 11.3 min; and `NC(Cc1ccc(O)c(O)c1)C(=O)O` [Dihydroxyphenyl-analine L-3 4], with 12.7 min.
Then `CN(C)Cc1ccccc1` [Dimethylbenzylamine N N-], with 7.54 min; and `NCCO` [Ethanolamine], with 12.9 min; and `Nc1nc2ncc(CNc3ccc(C(=O)NC(CCC(=O)O)C(=O)O)cc3)nc2c(=O)[nH]1` (centres undefined) [Folic Acid], with 11.4 min.
Molecule `NCCCC(=O)O` [Gamma-amino-n-butyric acid] displayed an LC retention time of 11.6 min.
Then `NC(=O)CCC(N)C(=O)O` [Glutamine L-], with 12.9 min; and `NC(N)=NCC(=O)O` [Glycocyamine], with 12.8 min.
Then `NCC(=O)NCC(=O)O` [Glycylglycine], with 14.4 min; and `Nc1nc2nc[nH]c2c(=O)[nH]1` [Guanine], with 9.81 min; and `Nc1nc2c(ncn2C2OC(CO)C(O)C2O)c(=O)[nH]1` (centres undefined) [Guanosine], with 10.6 min.
Then `O=c1[nH]cnc2nc[nH]c12` [Hypoxanthine], with 7.88 min; and `c1c[nH]cn1` [Imidazole], with 10.4 min; and `O=C(O)CNCC(=O)O` [Iminodiacetic acid], with 13.7 min.
As for `NC(=O)Cc1c[nH]c2ccccc12` [Indole-3-acetamide], the LC retention time turned out to be 2.48 min.
Regarding `O=c1[nH]cnc2c1ncn2C1OC(CO)C(O)C1O` (centres undefined) [Inosine], the LC retention time came to 9.18 min.
`O=C(O)C1CCNCC1` [Isonipecotic acid] had an LC retention time of 11 min.
Then `N[C@@H](CCCC(=O)O)C(=O)O` [L-2-Aminoadipic acid], with 12.4 min.
The value for `O=P([O-])([O-])OCC(O)CO` [L-Alpha-Glycerophosphate] was 13.5 min.
Then `NC(N)=NCCC[C@H](N)C(=O)O` [L-Arginine], with 16 min; and `NC(=O)C[C@H](N)C(=O)O` [L-Asparagine], with 13.2 min; and `N[C@@H](Cc1cnc[nH]1)C(=O)O` [L-Histidine monohydrochloride], with 15.7 min.
`N[C@@H](CCO)C(=O)O` [L-Homoserine] yielded an LC retention time of 12.6 min.
Then `NCCCC[C@H](N)C(=O)O` [L-Lysine], with 15.9 min; and `CCCC[C@H](N)C(=O)O` [L-Norleucine], with 9.62 min.
Then `NCCC[C@H](N)C(=O)O` [L-Ornithine], with 15.9 min; and `O=C(O)[C@@H]1CCCN1` [L-Proline], with 10.4 min; and `CCNC(=O)CC[C@H](N)C(=O)O` [L-Theanine], with 10.6 min.
The value for `CCC(N)C(=O)O` [L-a-Amino-n-butyric acid] was 11.6 min; that for `Cl.N[C@@H](CS)C(=O)O.O` [L-cysteine hydrochloride hydrate] was 11.9 min; that for `CC(C)(C)[C@H](N)C(=O)O` [L-tert-Leucine] was 10 min.
With `C[C@@H](O)[C@H](N)C(=O)O` [L-threonine], the LC retention time came out at 12.5 min.
For `N[C@@H](Cc1ccc(O)cc1)C(=O)O` [L-tyrosine], the LC retention time was determined as 11.2 min.
The value for `CC(O)C(=O)O` (centres undefined) [Lactic acid] was 7.45 min; that for `O=C(O)C(O)C(O)C(OC1OC(CO)C(O)C(O)C1O)C(O)CO` (centres undefined) [Lactobionic acid] was 14.3 min; that for `O=c1c(O)c(-c2ccc(O)cc2O)oc2cc(O)cc(O)c12` [Morin] was 6.55 min.
Then `C1COCCN1` [Morpholine], with 10.4 min.
As to `CC1OC(OC2C(Oc3cc(O)c4c(c3)OC(c3ccc(O)cc3)CC4=O)OC(CO)C(O)C2O)C(O)C(O)C1O` (centres undefined) [Naringin CHR], the LC retention time was 7.51 min.
Then `NC(=O)c1ccc[n+](C2OC(COP(=O)(O)OP(=O)([O-])OCC3OC(n4cnc5c(N)ncnc54)C(O)C3O)C(O)C2O)c1` (centres undefined) [Nicotinamide adenine dinucleotide], with 14.1 min.
The value for `O=C(O)c1cccnc1` [Nicotinic acid] was 2.35 min; that for `COC(C)C(N)C(=O)O` (centres undefined) [O-methyl threonine] was 10.4 min; that for `C[C@@H](OP(=O)(O)O)[C@H](N)C(=O)O` [O-phospho-L-threonine] was 14.5 min.
The value for `Nc1ccc(C(=O)O)cc1` [P-Aminobenzoic acid] was 2.26 min.
`O=C(CCc1ccc(O)cc1)c1c(O)cc(O)cc1OC1OC(CO)C(O)C(O)C1O` (centres undefined) [Phloridzin] showed an LC retention time of 7.09 min.
Then `Cc1ncc(COP(=O)(O)O)c(C=O)c1O` [Pyridoxal-5'-phosphate], with 10.3 min.
`Cc1ncc(CO)c(CO)c1O` [Pyridoxine] came in with an LC retention time of 9.21 min.
The value for `O=C(O)c1ccc2ccccc2n1` [Quinaldic acid] was 1.9 min; that for `Cc1cc2nc3c(=O)[nH]c(=O)nc-3n(CC(O)C(O)C(O)CO)c2cc1C` (centres undefined) [Riboflavin] was 7.85 min; that for `CC1OC(OCC2OC(Oc3c(-c4ccc(O)c(O)c4)oc4cc(O)cc(O)c4c3=O)C(O)C(O)C2O)C(O)C(O)C1O` (centres undefined) [Rutin Trihydrate] was 9.3 min.
Then `NC(CO)C(=O)O` [Serine L-], with 13.2 min; and `NCCS(=O)(=O)O` [Taurine], with 12.6 min.
In turn, `Cn1c(=O)c2[nH]cnc2n(C)c1=O` [Theophylline] showed an LC retention time of 2.28 min.

These data come from the RepoRT retention time repository (doi:10.1007/s11306-014-0727-x).
